Source: patent US5102870A, “Treatment and prevention of oral mucositis with growth factors” (Schering AG, priority 1989, dated 1992)

System: mucositis induced by the administration of 5-FU in hamsters
Assay: 5-fluorouracil plus mechanical irritation induced oral mucositis model, cheek pouch
Type: in vivo, Golden Syrian hamsters
Excerpt: An animal model for studying the acute effects of chemotherapy and radiotherapy in the oral cavity was developed by Dr. Stephen T. Sonis at Brigham and Women's Hospital, Boston, Mass. This model was particularly suited for testing the efficacy of growth factors on chemotherapy mucositis. This model utilizes an acute regimen of 5-fluorouracil (5-FU) combined with mechanical irritation to induce mucositis. More specifically, intraperitoneal (i.p.) injections of 5-fluorouracil were combined with superficial mechanical mucosal irritation to result in clinical breakdown of the oral mucosa as characterized by ulcerative mucositis in Golden Syrian hamsters. […] For these reasons, it was believed that this model would be extremely beneficial in evaluating growth factors to treat mucositis.
The following experiment was performed to determine the effects of growth factors, specifically TGF-α, on the prevention and healing of mucositis induced by the administration of 5-FU in hamsters. Example 1:
One hundred young male Golden Syrian hamsters were divided into four groups of 25 animals each. Beginning on day 0, animals received twice daily dosing of their cheek pouch buccal mucosa as follows:
Medication was applied in a volume of 0.2 ml of Orabase per cheek pouch. The right cheek pouch was mechanically irritated by superficial scratching starting at day 0, daily until erythematous changes were noted. For most animals, such changes were noted by day 2 and mechanical irritation discontinued. For the remaining animals, mechanical irritation was stopped at day 3. Beginning on day 0, all of the animals received i.p. injections of 5-FU at a dose of 60 mg/kg body weight, with additional dosing on days 5 and 10. The animals were observed and weighed daily. On days 2, 4, 6, 8, 10, 12, 14, 16, 18 and 20, two animals were randomly sacrificed in each group. Cheek pouches were biopsied. The tissue was then placed in 10% formalin for histologic study according to established methods, and subsequently stained with hematoxylin and eosin. The following parameters were evaluated and scored: inflammatory infiltrate, degree of epithelial atropy, extent of epithelial breakdown/ulceration, mitotic activity at would margins and evidence of superficial/secondary infection. Two randomly selected hamsters from each group had their cheek pouches photographed daily. The animals were weighed and observed daily. […] Mucositis was scored using the following established scale:
Grade 0--no evidence of ulcers or mucositis
Grade 1--erythema but no ulceration
Grade 2--1 or 2 small (<2 mm), single ulcers
Grade 3--1 large or 3 or more small ulcers
Grade 4--multiple large ulcers and/or involvement of 50% of pouch mucosal surface area
The animals were evaluated both for the ability of TGF-α to delay the onset and reduce the severity of mucositis. The data presented here are based upon clinical observations. Histologic evaluation of biopsied cheek pouches corroborated these observations.

## transforming growth factor-alpha [TGF-α]
Group III, TGF-α in Orabase 2 μg/dose (low dose), twice daily, compared among groups
  averaged mucositis grades (severity of mucositis): best results
Group III, TGF-α in Orabase 2 μg/dose, twice daily
  development of grade 3/4 mucositis: did not develop
Group IV, TGF-α in Orabase 20 μg/dose, twice daily
  day of development of grade 3/4 mucositis: 9 days
TGF-α groups vs Group I (none) and Group II (Orabase only)
  onset of mucositis (development of grade 3 and 4 mucositis): delayed the onset of mucositis
Groups receiving TGF-α in Orabase (2 or 20 μg/dose), topical to cheek pouch twice daily, 18 day period, vs control groups
  averaged mucositis grades (severity of mucositis): lower overall scores
